In PMC12471299, “Secondary Metabolites of the Marine Sponge-Derived Fungus Aspergillus subramanianii 1901NT-1.40.2 and Their Antimicrobial and Anticancer Activities” (Marine Drugs, 2025):
Converted amounts (≈) assume the structure as drawn.

Assays:
[1] = test system: vancomycin-resistant enterococci strains; parameters: method as in PMID 29642369; details: cited from earlier work
[2] = test system: Escherichia coli VKPM (B-7935); test: Antimicrobial assay, growth inhibition (optical density); assay type: cell-based; details: E. coli, 18 h
In short: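 MIC50 values derive from percent-of-control data: 50% reduction of growth (OD620, 18 h) or of biofilm (MTT, OD570, 18 h). Test compound ≤100 µM; 1% DMSO in PBS served as negative control.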

HCT116 cells = test system: HCT116 cells; parameters: method as in PMID 29642369; details: HCT116, at 100 µM; cited from earlier work
H9c2 cardiomyocytes = test: Cell viability assay (MTT); assay type: cell-based, rat
In short: (§1)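 Cells were seeded (H9c2 3 × 10^3, MCF-10A and MDA-MB-231 5 × 10^3, HaCaT 1 × 10^4 cells/well), left 24 h, then exposed to compounds up to 100 µM for 24 h or 48 h at 37 °C, 5% CO2. MTT read-out; viability given as percent of DMSO control.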

[3] = Cell viability assay (MTT); assay type: cell-based, rat; details: rat, H9c2 cardiomyocytes, read-out: Cytotoxicity IC50; for IC50 at 24 h: H9c2, 24 h; for IC50 at 48 h: H9c2, 48 h
In short: as §1

HepG2 cells = test system: HepG2 cells; parameters: method as in PMID 29642369; details: HepG2, at 100 µM; cited from earlier work
MCF-7 cells [4] = test: Proliferation assay (CFDA SE, flow cytometry); assay type: cell-based, human; details: 5 µM, 48 h
Method: MCF-7 cells at a concentration of 1.2 × 10^4 cells/well were seeded in a 12-well plate for 24 h. After adhesion, the cells were stained with (5,6)-carboxyfluorescein succinimidyl ester (CFDA SE) dye (LumiTrace CFDA SE kit; Lumiprobe, Moscow, Russia). Thereafter, the compound (5 µM) was added to the wells.
After 48 h of incubation, the cells were washed twice with PBS, scraped, and collected. The intensity of CFDA fluorescence was analyzed using a NovoCyte flow cytometer (Agilent, Austin, TX, USA), and the data were analyzed as previously described.

MCF-7 spheroids = test: Three-dimensional culture of MCF-7 cells, spheroid area; assay type: cell-based, human
Method: The anticancer effect of petromurin C (8) was investigated using a 3D culture of MCF-7 cells (Figure 12). MCF-7 spheroids were formed in agarose microwells using MSLA-printed stamps. Compound 8 (10 µM and 20 µM) was added 24 h after the cells were seeded.
MCF-7 cell spheroids were formed in agarose microwells as described previously. Briefly, agarose (2.8%) heated to 60 °C was added to each well of a 96-well plate, and MSLA-printed stamps with microcylinders were inserted and then removed after agarose solidification. Each well contained 34 microwells with a diameter of 300 μm. MCF-7 cells at a concentration of 2 × 10^4 cells/well were added to each well and gently centrifuged to precipitate the cells that had gathered in the microwells. Petromurin C (8) was added after 24 h, and observations were performed daily using an MIB-2-FL fluorescence microscope (Lomo Microsystems, St. Petersburg, Russia) The spheroid area was calculated using CellProfiler software v. 4.2.8 [51, 52]. In total, at least 20 of the same spheroids in each variant were analyzed daily and data were calculated as mean ± SEM.

MCF-7 cells [5] = test: MCF-7 cell colony formation (clonogenic) assay; assay type: cell-based; details: Homo sapiens, MCF7, 240 h, 10 d
Method: The effect of the compound on colony formation by MCF-7 cells was assessed using a clonogenic assay. The concentration of MCF-7 cells was 0.33 × 10^3/mL. The cells were incubated for 10 d, fixed with methanol (25 min), stained with 0.5% crystal violet solution (25 min), and washed with PBS. The grown colonies were counted using a BIO-PRINT-Cx4 Edge-Fixed Pad-Container (Vilber, Collegien, France). The results are presented as colony inhibition compared to that of the control.

Compound | cell viability (H9c2 cardiomyocytes; H9c2, 24 h, 1.0 µM) | cell viability (H9c2 cardiomyocytes; H9c2, 24 h, 10.0 µM) | cell viability (H9c2 cardiomyocytes; H9c2, 24 h, 100.0 µM) | cell viability (H9c2 cardiomyocytes; H9c2, 48 h, 1.0 µM) | cell viability (H9c2 cardiomyocytes; H9c2, 48 h, 10.0 µM) | cell viability (H9c2 cardiomyocytes; H9c2, 48 h, 100.0 µM) | IC50 at 24 h [3] [µM] | IC50 at 48 h [3] [µM] | other results
COC1=C(c2c[nH]c3ccccc23)C(=O)C(CC=C(C)C)=C(c2c[nH]c3ccccc23)C1=O [Compound 6, kumbicin D] | 104.0 ± 12.9 % of control | 92.9 ± 6.1 % of control | 30.9 ± 2.9 % of control | 99.7 ± 3.7 % of control | 88.6 ± 2.3 % of control | 21.6 ± 2.2 % of control | 72.2 ± 4.1 | 65.4 ± 2.1 | antibacterial activity [1]: not active; Growth inhibition, MIC50 [2]: 11.42 ± 1.02 µM; MIC50 ([2]; Escherichia coli): 7 to 11 µM (≈ 3.06 to 4.8 µg/mL); effect on cells (HCT116 cells): weak effects; effect on cells (HepG2 cells): weak effects
COc1c(OC)c(-c2c[nH]c3ccc(O)cc23)c(OC)c(OC)c1-c1c[nH]c2ccccc12 [Compound 8, petromurin C] | 100.9 ± 1.7 % of control | 95.9 ± 2.3 % of control | 57.4 ± 8.5 % of control | 101.6 ± 2.2 % of control | 79.8 ± 4.6 % of control | 55.8 ± 5.5 % of control | > 100 | > 100 | percentage of cells in division 1 (MCF-7 cells [4]): 76.9%; percentage of cells in division 2 (MCF-7 cells [4]): 15.2%; percentage of cells in division 3 (MCF-7 cells [4]): 5.5%; decrease of spheroid area (MCF-7 spheroids; 10 µM, after 24 h): 19.1%; decrease of spheroid area (MCF-7 spheroids; 10 µM, after 72 h): 28.9%; decrease of spheroid area (MCF-7 spheroids; 20 µM, after 24 h): 29.8%; decrease of spheroid area (MCF-7 spheroids; 20 µM, after 72 h): 32.6%; decrease of the area of MCF-7 3D spheroids (MCF-7 spheroids; abstract, concentration and time not stated): approximately 30%; inhibition at 5 µM (MCF-7 cells [5]; 5 µM): 16.8%; inhibition at 10 µM (MCF-7 cells [5]; 10 µM): 20.4%
